“Also recorded” adds a separate entry of the source.
Tests used:
[1] = test system: Male wild type C57bl6 mice fed cuprizone; experiment: Visual evoked potentials after cuprizone diet (in vivo); set-up: species or system mouse; settings: 0.1 mg/kg or 0.3 mg/kg subcutaneous twice a day, remyelination phase, compared to vehicle
Procedure: Male wild type C57bl6 mice were fed regular chow (n=6) or 0.3% (w/w)cuprizone (n=21) for 6 weeks to […]. Afterwards, cuprizone was removed and recovery was allowed. Two days before ceasing the cuprizone diet, until the end of the experiment, animals received twice a day subcutaneous injections consisting of 0.1% DMSO in 0.5% methylcellulose solution with either vehicle (no cuprizone and vehicle group; n=6 and n=8 respectively), 0.1 mg/kg RICE (n=7) or 0.3 mg/kg RICE (n=6) (FIG. 3). […] After either three or four days after ceasing the cuprizone diet, visual evoked potential were measured to evaluate optic tract and nerve signaling (groups equally divided over testing days). Epidermal VEP was recorded in response to flash stimulation (3 trains of 20 stimuli, 10 us duration, 1 Hz frequency) from both eyes. […] A one-way ANOVA with Kruskall Wallis multiple comparison test was conducted to evaluate statistical significances (*p≤0.05; **p<0.01, ****p<0.001).

[2] = test system: young adult C57BL/6J-OlaHsd mice; experiment: Object location task (OLT), 24h intertrial interval; type: in vivo, mouse
Procedure: Mice received a subcutaneous injection with vehicle (0.1% DMSO in 2% Tween80 and 0.5% methylcellulose), roflumilast 0.03 mg/kg as a positive control, or RICE01 (0.00003 mg/kg-0.3 mg/kg) 3h after the first learning trial of the 24h interval OLT.

[3] = test system: Primary mouse oligodendrocyte precursor cells (OPCs); experiment: OPC differentiation (in vitro), O4 and MBP staining; type: cell-based; settings: for OPC differentiation towards oligodendrocytes: nanomolar ranges
Procedure: Primary mouse oligodendrocyte precursor cells (OPCs) were isolated from p0 C57bl6 pups using the shake off method at day 0 (FIG. 1). […] Primary OPCs (150,000 cells/condition) were cultured and stimulated with vehicle (0.1% DMSO) or different concentration of RICE (3 nM, 10 nM, 30 nM, 100 nM, 300 nM, 1000 nM) in 0.1% DMSO. Treatment was repeated on day 2 and day 4, applying a 40% medium change. Cells were fixated at day 6 and stained for O4, a late OPC marker, and MBP, an oligodendrocyte marker. […] The increased expression of O4 declined from 100 nM RICE onwards.

[4] = test system: Mouse cerebellar brain slices; experiment: Myelination in lysolecithin-demyelinated brain slices (ex vivo); type: cell-based; settings: 1 μM, 10 days
Procedure: Mouse cerebellar brain slices (350 μm) were made from the cerebellum of p10 C57bl6 pups. After 4 days in culture, slices were demyelinated using 0.5 mg/ml lysolecithin (18 h) and subsequently treated for 10 days with 1 μM RICE (in 0.1% DMSO) (FIG. 2).

Oc1cc(-c2ccn(CC(O)CN3CCOCC3)n2)ccc1OC(F)F (stereo not shown) [RICE01]
visual evoked potential latency [1]: decreased latency times
D2 value versus zero (one-sample t-test) ([2]; 0.00003 mg/kg subcutaneous): significantly higher than zero
D2 value versus zero (one-sample t-test) ([2]; 0.0001 mg/kg subcutaneous): significantly higher than zero
d2 index compared with vehicle treatment (Dunnett's) ([2]; 0.0001 mg/kg subcutaneous): significantly higher d2 index
D2 value versus zero (one-sample t-test) ([2]; 0.0003 mg/kg subcutaneous): significantly higher than zero
D2 value versus zero (one-sample t-test) ([2]; 0.001 mg/kg subcutaneous): significantly higher than zero
D2 value versus zero (one-sample t-test) ([2]; 0.01 mg/kg subcutaneous): significantly higher than zero
D2 value versus zero (one-sample t-test) ([2]; 0.03 mg/kg subcutaneous): significantly higher than zero
D2 value versus zero (one-sample t-test) ([2]; 0.1 mg/kg subcutaneous): significantly higher than zero
d2 index compared with vehicle treatment (Dunnett's) ([2]; 0.1 mg/kg subcutaneous): significantly higher d2 index
discrimination index (D2) in the object location task ([2]; subcutaneous, 0.00003 mg/kg-0.3 mg/kg, 3h after first learning trial): increases
MBP expression (oligodendrocyte marker) ([3]; 3-1000 nM, day 6): dose dependently increased
O4 expression (late OPC marker) ([3]; 3-1000 nM, treatment day 0, 2, 4, fixated day 6): increased with the lower concentrations
concentration from which the increased expression of O4 declined ([3]; day 6): ≥ 100 nM
concentration of maximal MBP expression ([3]; day 6): 30 nM
concentration of maximal O4 expression increase ([3]; day 6): 10 nM
OPC differentiation towards oligodendrocytes [3]: induces OPC differentiation and myelin production
OPC differentiation towards oligodendrocytes ([3]; listed as RICE): boosts OPC differentiation towards oligodendrocytes; also recorded: boosted OPC differentiation; also recorded: stimulated the differentiation of oligodendrocytes
(re)myelination (myelination index / MBP expression) [4]: improved (re)myelination
